Measurements: patent publication US9670142B2, “1,3-diaminocyclopentane carboxamide derivatives” (Merck Patent GmbH, priority 2013, dated 2017)

Each compound was assayed against human fatty acid synthase FASN (Homo sapiens (Human), UniProt P49327) (assay: Biochemical activity testing of human fatty acid synthase FASN (NADPH fluorescence intensity enzyme assay)). Conditions: human recombinant full-length fatty acid synthase.
human fatty acid synthase FASN, sequence (P49327 whole entry): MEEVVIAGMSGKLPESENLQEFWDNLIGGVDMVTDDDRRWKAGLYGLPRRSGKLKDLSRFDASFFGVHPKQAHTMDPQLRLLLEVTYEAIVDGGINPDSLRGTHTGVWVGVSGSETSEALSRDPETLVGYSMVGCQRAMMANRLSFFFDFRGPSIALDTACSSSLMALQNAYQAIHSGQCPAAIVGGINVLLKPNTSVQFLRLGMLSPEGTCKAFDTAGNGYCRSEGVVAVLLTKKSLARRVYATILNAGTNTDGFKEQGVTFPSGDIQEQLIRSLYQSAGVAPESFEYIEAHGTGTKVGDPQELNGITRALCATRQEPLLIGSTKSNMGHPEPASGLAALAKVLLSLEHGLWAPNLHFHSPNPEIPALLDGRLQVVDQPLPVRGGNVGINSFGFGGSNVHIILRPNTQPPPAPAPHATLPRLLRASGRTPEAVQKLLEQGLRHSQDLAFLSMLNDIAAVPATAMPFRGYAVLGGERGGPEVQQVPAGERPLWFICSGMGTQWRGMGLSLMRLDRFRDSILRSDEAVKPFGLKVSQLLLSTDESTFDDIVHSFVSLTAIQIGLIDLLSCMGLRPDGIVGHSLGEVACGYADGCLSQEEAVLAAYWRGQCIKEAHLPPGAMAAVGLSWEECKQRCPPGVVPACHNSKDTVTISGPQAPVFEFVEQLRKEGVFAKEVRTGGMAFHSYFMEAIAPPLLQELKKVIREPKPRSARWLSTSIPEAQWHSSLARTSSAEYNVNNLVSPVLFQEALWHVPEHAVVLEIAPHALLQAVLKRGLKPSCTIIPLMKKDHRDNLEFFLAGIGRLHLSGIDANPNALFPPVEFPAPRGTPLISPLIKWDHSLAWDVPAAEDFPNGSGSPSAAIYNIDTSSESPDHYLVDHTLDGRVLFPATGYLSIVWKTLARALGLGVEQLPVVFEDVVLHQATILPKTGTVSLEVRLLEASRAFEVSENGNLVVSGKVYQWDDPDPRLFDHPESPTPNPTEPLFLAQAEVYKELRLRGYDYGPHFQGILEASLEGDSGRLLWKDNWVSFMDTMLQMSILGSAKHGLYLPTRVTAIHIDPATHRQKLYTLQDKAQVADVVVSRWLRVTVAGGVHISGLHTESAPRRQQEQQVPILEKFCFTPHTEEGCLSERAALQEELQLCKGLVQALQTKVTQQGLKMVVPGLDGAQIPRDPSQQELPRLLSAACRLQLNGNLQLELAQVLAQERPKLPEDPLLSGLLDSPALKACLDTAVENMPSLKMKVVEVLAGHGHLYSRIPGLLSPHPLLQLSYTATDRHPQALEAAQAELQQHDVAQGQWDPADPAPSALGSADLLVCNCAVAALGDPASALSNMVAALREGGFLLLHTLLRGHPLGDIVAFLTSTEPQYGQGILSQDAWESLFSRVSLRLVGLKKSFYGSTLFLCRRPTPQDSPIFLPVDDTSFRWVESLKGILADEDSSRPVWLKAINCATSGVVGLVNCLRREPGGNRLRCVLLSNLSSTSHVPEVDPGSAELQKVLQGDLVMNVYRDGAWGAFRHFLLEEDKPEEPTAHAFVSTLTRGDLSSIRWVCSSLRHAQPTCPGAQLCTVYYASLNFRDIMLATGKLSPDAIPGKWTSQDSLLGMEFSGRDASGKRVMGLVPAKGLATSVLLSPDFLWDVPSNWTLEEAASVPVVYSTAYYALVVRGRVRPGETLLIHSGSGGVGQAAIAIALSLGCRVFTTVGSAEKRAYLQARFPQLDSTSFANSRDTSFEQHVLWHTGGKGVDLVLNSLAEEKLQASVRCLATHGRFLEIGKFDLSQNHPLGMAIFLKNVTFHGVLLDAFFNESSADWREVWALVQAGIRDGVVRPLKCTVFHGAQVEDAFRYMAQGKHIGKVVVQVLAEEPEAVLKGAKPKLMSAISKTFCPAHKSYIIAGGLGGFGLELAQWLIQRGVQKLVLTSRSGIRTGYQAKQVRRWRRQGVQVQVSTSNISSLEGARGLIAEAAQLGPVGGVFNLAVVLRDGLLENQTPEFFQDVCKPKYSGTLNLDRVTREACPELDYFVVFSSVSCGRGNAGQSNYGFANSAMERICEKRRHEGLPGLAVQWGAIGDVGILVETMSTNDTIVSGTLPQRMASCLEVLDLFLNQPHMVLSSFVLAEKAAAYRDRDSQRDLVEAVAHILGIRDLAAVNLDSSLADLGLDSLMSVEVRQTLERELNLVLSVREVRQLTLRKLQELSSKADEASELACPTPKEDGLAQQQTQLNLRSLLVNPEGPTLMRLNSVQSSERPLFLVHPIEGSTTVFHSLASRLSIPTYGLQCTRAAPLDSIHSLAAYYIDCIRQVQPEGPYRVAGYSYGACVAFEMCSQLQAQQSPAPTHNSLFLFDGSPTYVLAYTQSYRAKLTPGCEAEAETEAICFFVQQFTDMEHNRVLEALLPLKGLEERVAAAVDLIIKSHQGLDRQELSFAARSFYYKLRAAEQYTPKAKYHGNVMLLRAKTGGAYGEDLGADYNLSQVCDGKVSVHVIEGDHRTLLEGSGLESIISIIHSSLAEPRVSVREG
Summary of the method: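 In-house Sf9-expressed full-length enzyme (3 μL of 40 nM) in 50 mM potassium phosphate pH 7.0 with glutathione, BSA and Tween-20, plus NADPH (2 μL of 200 μM), preincubated ≥15 min with compound (10 concentrations from 30 μM final, 1% DMSO). Acetyl-CoA/malonyl-CoA added; NADPH fluorescence (ex 340/em 460 nm) read before and after 30 min at room temperature, difference used for IC50.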
For `CN(C(=O)c1ccc(-c2nc3ccccc3o2)cc1)[C@@H]1CC[C@H](NC(=O)C(F)(F)C(F)(F)F)C1` [Compound A25, 4-benzoxazol-2-yl-N-methyl-N-[(1R,3S)-3-(2,2,3,3,3-pentafluoro-propionylamino)-cyclopentyl]-benzamide], the IC50 was 300 to 3000 nM. `CCC(=O)N[C@H]1CC[C@@H](N(C)C(=O)c2ccc(-c3ccc4[nH]ccc4c3)cn2)C1` [Compound A109, 5-(1H-indol-5-yl)-pyridine-2-carboxylic acid methyl-((1R,3S)-3-propionylamino-cyclopentyl)-amide] was tested, and the IC50 was under 300 nM. For `CCC(=O)N[C@H]1CC[C@@H](N(C)C(=O)c2ccc(-c3ccc(C(N)=O)cc3)cc2)C1` [Compound A57, biphenyl-4,4′-dicarboxylic acid 4′-amide 4-[methyl-((1R,3S)-3-propionylamino-cyclopentyl)-amide]], the IC50 was under 300 nM.
